Measured values: the supplement of paper PMC11451515

Tested on: P12-Ichikawa
Test: cell viability relative to DMSO control; higher = less cytotoxic
Conditions: 48 h
Summary of the method: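 Viability is a per-plate percentage relative to DMSO wells, with cell-free wells as background. CellTiter-Glo One luminescence was read after 48 h at 37°C on 1536-well plates (5 μl) of NOMO1 or SEM (500 cells/well) or P12-Ichikawa (1000 cells/well) leukemia cells. The cells had been adapted for at least four passages in each medium and pin-dosed with library compounds in DMSO from 47 μM to 0.79 nM in 11 threefold steps.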

[1] = HPLM + 10% dialyzed FBS, 0.000781 µM
[2] = HPLM + 10% dialyzed FBS, 0.00234 µM
[3] = HPLM + 10% dialyzed FBS, 0.00702 µM
[4] = HPLM + 10% dialyzed FBS, 0.0211 µM
[5] = HPLM + 10% dialyzed FBS, 0.0632 µM
[6] = HPLM + 10% dialyzed FBS, 0.19 µM
[7] = HPLM + 10% dialyzed FBS, 0.569 µM
[8] = HPLM + 10% dialyzed FBS, 1.71 µM
[9] = HPLM + 10% dialyzed FBS, 5.12 µM
[10] = HPLM + 10% dialyzed FBS, 15.4 µM
[11] = HPLM + 10% dialyzed FBS, 46.1 µM
[12] = RPMI 5 mM glucose + 10% dialyzed FBS, 0.000781 µM
[13] = RPMI 5 mM glucose + 10% dialyzed FBS, 0.00234 µM
[14] = RPMI 5 mM glucose + 10% dialyzed FBS, 0.00702 µM
[15] = RPMI 5 mM glucose + 10% dialyzed FBS, 0.0211 µM
[16] = RPMI 5 mM glucose + 10% dialyzed FBS, 0.0632 µM
[17] = RPMI 5 mM glucose + 10% dialyzed FBS, 0.19 µM
[18] = RPMI 5 mM glucose + 10% dialyzed FBS, 0.569 µM
[19] = RPMI 5 mM glucose + 10% dialyzed FBS, 1.71 µM
[20] = RPMI 5 mM glucose + 10% dialyzed FBS, 5.12 µM
[21] = RPMI 5 mM glucose + 10% dialyzed FBS, 15.4 µM
[22] = RPMI 5 mM glucose + 10% dialyzed FBS, 46.1 µM
[23] = RPMI 5 mM glucose + 10% FBS, 0.000781 µM
[24] = RPMI 5 mM glucose + 10% FBS, 0.00234 µM
[25] = RPMI 5 mM glucose + 10% FBS, 0.00702 µM
[26] = RPMI 5 mM glucose + 10% FBS, 0.0211 µM
[27] = RPMI 5 mM glucose + 10% FBS, 0.0632 µM
[28] = RPMI 5 mM glucose + 10% FBS, 0.19 µM
[29] = RPMI 5 mM glucose + 10% FBS, 0.569 µM
[30] = RPMI 5 mM glucose + 10% FBS, 1.71 µM
[31] = RPMI 5 mM glucose + 10% FBS, 5.12 µM
[32] = RPMI 5 mM glucose + 10% FBS, 15.4 µM
[33] = RPMI 5 mM glucose + 10% FBS, 46.1 µM

| SMILES | cell viability [1] [%] | cell viability [2] [%] | cell viability [3] [%] | cell viability [4] [%] | cell viability [5] [%] | cell viability [6] [%] | cell viability [7] [%] | cell viability [8] [%] | cell viability [9] [%] | cell viability [10] [%] | cell viability [11] [%] | cell viability [12] [%] | cell viability [13] [%] | cell viability [14] [%] | cell viability [15] [%] | cell viability [16] [%] | cell viability [17] [%] | cell viability [18] [%] | cell viability [19] [%] | cell viability [20] [%] | cell viability [21] [%] | cell viability [22] [%] | cell viability [23] [%] | cell viability [24] [%] | cell viability [25] [%] | cell viability [26] [%] | cell viability [27] [%] | cell viability [28] [%] | cell viability [29] [%] | cell viability [30] [%] | cell viability [31] [%] | cell viability [32] [%] | cell viability [33] [%] |
| --- | --- | --- | --- | --- | --- | --- | --- | --- | --- | --- | --- | --- | --- | --- | --- | --- | --- | --- | --- | --- | --- | --- | --- | --- | --- | --- | --- | --- | --- | --- | --- | --- | --- |
| CN1CCN(CCOc2cc(OC3CCOCC3)c3c(Nc4c(Cl)ccc5c4OCO5)ncnc3c2)CC1 | 121 | 125 | 130 | 134 | 130 | 128 | 136 | 124 | 101 | 32.3 | 20 |  |  |  |  |  |  |  |  |  |  |  |  |  |  |  |  |  |  |  |  |  |  |
| OCc1ccc(-c2ccc(-c3ccc(CO)s3)o2)s1 | 116 | 116 | 106 | 116 | 101 | 105 | 102 | 106 | 98 | 97.8 | 87.3 | 118 | 123 | 130 | 125 | 118 | 109 | 104 | 95.4 | 96.3 | 91 | 78.6 |  |  |  |  |  |  |  |  |  |  |  |
| CCOC(=O)\C1=C\[C@@H](OC(CC)CC)[C@H](NC(C)=O)[C@@H](N)C1 | 98.9 | 95 | 92.3 | 97.3 | 92.3 | 103 | 96.9 | 96 | 99.6 | 100 | 94.9 | 87.7 | 79.3 | 86.5 | 94.8 | 90.7 | 81.4 | 88.8 | 86.2 | 87.4 | 84.8 | 99.3 | 86 | 95.3 | 97.4 | 95.8 | 94.3 | 102 | 95.7 | 88.5 | 102 | 100 | 99.9 |
| CC1(C)C(N(O)C(=O)Nc2ccc(Cl)cc2)N(c2ccc(Cl)cc2)C(=O)N1CC(=O)N/N=C/C=C/c1ccc([N+](=O)[O-])o1 (centres undefined) | 112 | 109 | 111 | 113 | 115 | 104 | 105 | 103 | 99.4 | 103 | 65.6 | 115 | 104 | 115 | 111 | 109 | 113 | 104 | 103 | 103 | 91.3 | 49 | 108 | 105 | 105 | 110 | 113 | 107 | 110 | 106 | 102 | 100 | 52.4 |
| COc1ccc2cc1Oc1ccc(cc1)C[C@H]1c3cc(c(OC)cc3CCN1C)Oc1c(OC)c(OC)cc3c1[C@H](C2)N(C)CC3 | 113 | 122 | 118 | 118 | 110 | 114 | 113 | 101 | 96.8 | 98.3 | 63.2 | 114 | 111 | 115 | 106 | 113 | 103 | 105 | 103 | 102 | 95.6 | 58.5 | 123 | 118 | 115 | 117 | 113 | 111 | 112 | 111 | 103 | 91.2 | 49.1 |
| C1CCN2C[C@H]3C[C@H](\C=C/4CCCN[C@@H]34)[C@H]2C1 | 105 | 108 | 99.3 | 103 | 104 | 110 | 110 | 115 | 111 | 108 | 11.1 | 113 | 104 | 101 | 112 | 112 | 109 | 108 | 97.6 | 112 | 108 | 19.2 | 110 | 115 | 121 | 127 | 117 | 123 | 122 | 116 | 115 | 134 | 20.8 |
| N=C1N[C@H]2[C@H](CS[C@H]2CCCCC(=O)O)N1 | 108 | 116 | 110 | 118 | 124 | 119 | 130 | 114 | 123 | 119 | 113 | 114 | 124 | 111 | 129 | 117 | 126 | 121 | 117 | 126 | 126 | 116 | 123 | 130 | 121 | 134 | 135 | 131 | 125 | 126 | 135 | 126 | 139 |
| Cc1c[nH]c(-c2cnc(NCCNc3ccc(C#N)cn3)nc2-c2ccc(Cl)cc2Cl)n1 | 75.2 | 83.3 | 80.6 | 88.1 | 87.7 | 88.9 | 88.3 | 94.3 | 91.2 | 91.1 | 16.4 | 75.1 | 85.3 | 80.2 | 80 | 81 | 82.2 | 78.8 | 80.6 | 84.1 | 92.9 | 29.9 | 67.6 | 82.5 | 77.7 | 78.7 | 79.9 | 80.6 | 78.9 | 83.5 | 75 | 89.1 | 24.8 |
| CN1CCN(C(=O)O[C@H]2c3nccnc3C(=O)N2c2ccc(Cl)cn2)CC1 | 112 | 108 | 105 | 111 | 104 | 110 | 103 | 108 | 101 | 98.2 | 99.9 | 98.6 | 102 | 98.9 | 105 | 92.9 | 102 | 101 | 99.1 | 102 | 93.6 | 85.1 | 96.8 | 102 | 106 | 106 | 101 | 106 | 103 | 95.5 | 93 | 95.1 | 88 |
| COc1cc(/C=C/C(=O)O)ccc1O | 89.1 | 93 | 91.4 | 104 | 95.7 | 102 | 107 | 99 | 103 | 106 | 107 | 88.1 | 89.8 | 88.7 | 94.1 | 91.5 | 91.1 | 96.3 | 93.5 | 91.1 | 94.1 | 99 | 90.9 | 88.5 | 91.9 | 84.4 | 88.5 | 92 | 99.4 | 88.4 | 79.1 | 97.1 | 101 |
| CO/N=C(/C(=O)N[C@@H]1C(=O)N2C(C(=O)O)=C(CSC(=O)c3ccco3)CS[C@H]12)c1csc(N)n1 | 100 | 108 | 112 | 119 | 109 | 111 | 116 | 118 | 113 | 109 | 110 | 95.6 | 104 | 112 | 108 | 112 | 109 | 104 | 103 | 102 | 107 | 104 | 98.1 | 100 | 117 | 107 | 105 | 106 | 98.6 | 104 | 98.9 | 103 | 96.2 |
| CC/1=C(\O)C(=O)\C=C2/C1=C/C=C3\[C@@]2(C)CC[C@@]4(C)[C@@H]5C[C@@](C)(CC[C@]5(C)CC[C@]34C)C(O)=O | 105 | 96.7 | 103 | 103 | 114 | 109 | 104 | 98.5 | 56.4 | 5.75 | 5.87 | 96.1 | 94.9 | 98.8 | 101 | 95.6 | 94.8 | 97.9 | 71.1 | 16.6 | 5.81 | 4.82 | 97.4 | 97.3 | 104 | 96.9 | 102 | 97.2 | 106 | 75.9 | 22.5 | 5.4 | 4.66 |
| CC(O)C1C2C(C)\C(=C(/N2C1=O)C(O)=O)SC3CNC(C3)C(=O)N(C)C (centres undefined) | 84 | 82.1 | 86.8 | 88.3 | 93.2 | 92.9 | 99.6 | 96.5 | 90.4 | 92.8 | 88.1 | 85.7 | 80 | 85.8 | 88 | 88.8 | 89.2 | 86.2 | 86.2 | 86.5 | 88.2 | 95.5 | 77.1 | 78.2 | 79.4 | 81.7 | 82.3 | 85.5 | 82.7 | 77.6 | 84.7 | 88.2 | 85.6 |
| C[S+](=O)([O-])c1ccc(Oc2cc(F)cc(C#N)c2)c2c1[C@H](O)C(F)(F)C2 | 92.8 | 96.9 | 102 | 100 | 102 | 107 | 103 | 104 | 110 | 109 | 96.3 | 92.6 | 105 | 108 | 110 | 115 | 110 | 104 | 110 | 110 | 104 | 106 | 91.5 | 100 | 103 | 117 | 108 | 107 | 112 | 105 | 105 | 106 | 97.8 |
| COc1cc(O)c2c(c1)C(=O)c1cc(C)cc(O)c1C2=O | 124 | 120 | 122 | 118 | 122 | 119 | 112 | 114 | 110 | 98.9 | 41.7 |  |  |  |  |  |  |  |  |  |  |  | 121 | 118 | 121 | 119 | 121 | 116 | 113 | 113 | 120 | 97.6 | 45.2 |
| CN(C)C1=C(Br)C=C(C=C1)C\2NC3=C(\C4=C2C(=O)CC(C)(C)C4)C5=CC=CC=C5C=C3 (centres undefined) | 116 | 96.7 | 118 | 116 | 116 | 113 | 106 | 108 | 107 | 103 | 108 | 112 | 111 | 110 | 113 | 117 | 109 | 102 | 111 | 101 | 97 | 104 | 112 | 115 | 116 | 104 | 111 | 100 | 109 | 101 | 105 | 102 | 107 |
